Measured values taken from US11401303B2, “Synthetic peptide BRAP and application in preparation of anti-inflammatory drug for COVID-19 thereof” (TAIAN CITY QIHANG BIOTECHNOLOGY CO., priority 2020, dated 2022).
Entries after “also recorded” stand apart in the source; their conditions may differ. Ends that are not written are not given here.

How the values were obtained:
[1] = test system: OVA-induced allergic rhinitis; test: Rat allergic nasal inflammation (OVA-induced allergic rhinitis), intranasal administration; type: in vivo, SD rat; settings: bilateral nasal cavities 50 μL/side, 4 weeks
Protocol: SD rat modeling: two stages of intraperitoneal injection for sensitization and intranasal dripping for stimulation. Ovalbumin was injected intraperitoneally, and 1 mg ovalbumin (V-class Sigma, USA) was dissolved in 1 ml normal saline, and 30 mg of aluminum hydroxide was added as an immunologic adjuvant. Each rat was intraperitoneally injected 1 ml ovalbumin suspension prepared above with 1 ml/time every other day and for 7 times in total; and stimulated intranasally with ovalbumin on the 15th day; 20 mg ovalbumin (V-class Sigma, USA) were dissolved in 1 ml normal saline to be prepared into a 2% solution; and the 2% ovalbumin solution was used for stimulation by nasal dripping; and 50 ul nasal drips were administered in each of the nasal cavities of each rat for 7 consecutive days.
Blank control group: 30 mg of aluminum hydroxide+1 ml of normal saline were mixed evenly, and then injected intraperitoneally; and the method was the same as the above.
Normal saline was dripped into nasal cavities on the 15th day.
After the final nasal dripping was performed, each rat was observed and evaluated according to a scoring table: Sneezing, nose scratching, gasping and nasal secretions
1. Administration way: a drug was administered with a micro-sampling gun, bilateral nasal cavities of a rat were administered with 50 μL/side, after being administered for 20 min, a 2% ovalbumin solution was administered to bilateral nasal cavities of the rat; 50 μL/side nasal dripping was administered for provocation; the above treatment was performed for 4 consecutive weeks to observe the pharmacodynamic effect.
High-dose synthetic peptide brap: a synthetic peptide brap freeze-dried powder (5 mg/bottle) was taken, and 1.63 ml sterile saline solution was added for dissolving;
medium-dose synthetic peptide brap: a synthetic peptide brap freeze-dried powder (5 mg/bottle) was taken, and 4.89 ml sterile saline solution was added for dissolving;
low-dose synthetic peptide brap: a synthetic peptide brap freeze-dried powder (5 mg/bottle) was taken, and 14.67 ml sterile saline solution was added for dissolving;

[2] = test system: TNF-a; test: TNF-a content in blood serum of LPS-induced mice (ELISA); type: in vivo, Balb/C mice
Protocol: (§1) 1. A reagent was taken out of a kit and balanced for 30 min at room temperature;
(§2) 2. standard wells and sample wells were set, and 50 ul standards at different concentrations were respectively added to each standard well.
(§3) 3. 50 ul sample to be tested (blood sample from each group of mice model constructed in example 9) was first added to the wells of the sample to be tested;
(§4) 4. 100 ul HRP-labeled detection antibody was respectively added to each standard well and well to be tested;
(§5) 5. reaction wells were sealed by a microplate membrane for incubation for 60 min at 37° C.;
(§6) 6. liquid was discarded, water was dried by an absorbent paper, each well was filled with scrubbing solution, standing for 1 min;
(§7) 7. a culture solution was discarded, water was dried by an absorbent paper, and steps 2-6 were operated repeatedly for 5 times;
(§8) 8. 50 ul substrate A/B was respectively added to each well for incubation for 15 min at 37° C.;
(§9) 9. 50 ul stop buffer was added to each well to detect an OD value at 450 nm by an microplate reader within 15 min.

[3] = test system: IL-6; test: IL-6 content in blood serum of LPS-induced mice (ELISA); type: in vivo, Balb/C mice
Protocol: as §1, §2, §3, §4, §5, §6, §7, §8, §9

[4] = target: Bradykinin B2 receptor (Homo sapiens, UniProt P30411); test: cell-based
[5] = test system: LPS-induced acute lung injury; test: LPS-induced acute lung injury in mice, HE pathological examination of lung tissues; type: in vivo, Balb/C mice; settings: LPS 5 mg/kgBW i.p.
Protocol: 1. Grade-SPF male Balb/C mice, body weight: 20±2 g, and n=48
3. Grouping and treatment: mice were randomly divided into 8 groups (A-H), 6 pcs./group;
3-1: 3 different treatments were given for 3 consecutive days respectively before modeling:
A. normal control group: normal saline was injected via the tail vein for once/day;
B. LPS model group: normal saline was injected via the tail vein for once/day;
C. model sp2 administration group: sp2 (16 mg/kgBW) was injected via the tail vein for once/day;
D. model high-dose brap administration group: brap (16 mg/kgBW) was injected via the tail vein for once/day;
E. model medium-dose brap administration group: brap (8 mg/kgBW) was injected via the tail vein for once/day;
F. model low-dose brap administration group: brap (4 mg/kgBW) was injected via the tail vein for once/day;
G. model brap intranasal administration group: brap (3 mM) was administered nasal administration on both sides, 15 μl/each side; once a day;
H. model dexamethasone administration group (a positive control group): dexamethasone, DEX, 5 mg/kg was injected intraperitoneally for once a day.
Animals from groups A-H were continuously administered the above treatments for 30 min respectively, then group A was intraperitoneally injected isopyknic normal saline, and other groups were intraperitoneally injected LPS 5 mg/kgBW.
1. Tissue section and extending
2. Tissues were dewaxed and hydrated.
3. Tissues were dyed with a hematoxylin stain for 5-20 min (adjusted according to different tissues and experimental requirements), and washed by tap water.
4. Then, tissues were differentiated by a differentiation solution for 30 s.
5. Tissues were soaked by tap water for 15 min or warm water (about 50° C.) for 5 min.
6. Tissues were put in an Eosin stain for 2 min (adjusted according to different tissues and experimental requirements), and washed by tap water.
7. Then, the tissues were soaked by tap water for 5 min.
8. Dehydration by gradient alcohol: Tissues were dehydrated by 95%, 100% I, and 100% II for 1 min each;
9. Transparency by xylene: tissues were subjected to xylene I and II for 10 min.
10. Neutral balsam mounting.
11. Then, it was put and dried in an oven at 60° C., and observed under microscope.

[6] = target: T1, Bradykinin B1 receptor (Homo sapiens, UniProt P46663); type: cell-based
T1 construct: host or cells: HEK293/Gα15/B1
T1 sequence (P46663 1-353): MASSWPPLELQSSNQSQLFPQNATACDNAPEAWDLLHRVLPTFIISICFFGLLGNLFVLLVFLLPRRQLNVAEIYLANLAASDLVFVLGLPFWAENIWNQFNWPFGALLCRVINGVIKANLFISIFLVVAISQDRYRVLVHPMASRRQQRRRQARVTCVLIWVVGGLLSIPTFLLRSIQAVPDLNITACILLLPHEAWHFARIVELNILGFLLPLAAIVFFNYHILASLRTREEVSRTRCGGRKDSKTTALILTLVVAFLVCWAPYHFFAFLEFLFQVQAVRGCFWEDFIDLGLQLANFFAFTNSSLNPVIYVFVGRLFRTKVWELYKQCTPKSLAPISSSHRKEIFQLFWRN

[7] = low, medium and high-dose intravenous injection groups, p<0.01
[8] = nasal dripping group, at 12 h, P<0.05

Sequence of Bradykinin B2 receptor (P30411 whole entry): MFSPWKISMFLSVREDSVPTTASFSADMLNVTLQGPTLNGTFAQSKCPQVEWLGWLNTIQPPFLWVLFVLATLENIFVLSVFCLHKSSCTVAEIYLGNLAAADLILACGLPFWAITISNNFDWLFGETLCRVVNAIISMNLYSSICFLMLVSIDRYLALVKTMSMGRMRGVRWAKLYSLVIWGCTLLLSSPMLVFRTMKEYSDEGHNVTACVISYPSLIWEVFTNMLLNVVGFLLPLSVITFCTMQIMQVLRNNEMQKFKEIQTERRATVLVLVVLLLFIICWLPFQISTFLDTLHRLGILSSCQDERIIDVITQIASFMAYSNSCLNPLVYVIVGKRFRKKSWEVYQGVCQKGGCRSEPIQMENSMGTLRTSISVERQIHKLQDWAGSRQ

RVLNGPEAPA [brap] was tested, and the “Scoring change before and after treatment” value ([1]; all dose groups of the peptide, continued OVA provocation) was “decreases”, the “Allergic rhinitis symptom scoring compared with the model group” value ([1]; high, medium and low dose, significant difference) was “can improve the OVA-induced allergic rhinitis symptoms” and the “TNF-a level in serum compared with the model group” value [2, 7] was “dose-response relationship”. For the same sequence, the “TNF-a level in LPS-induced blood” value [2, 8] was “can decrease”, the “IL-6 level in serum compared with the model group” value [3, 7] was “dose-response relationship” and the “IL-6 level in LPS-induced blood” value [3, 8] was “can decrease”. For the same sequence, the IC50 [4] was about 1000 µM, the “Lung tissue pathology (HE)” value ([5]; 16 mg/kgBW via tail vein once/day) was “No abnormality; also recorded: no thickened pulmonary septum and no obvious inflammatory cell infiltration” and the “Lung tissue pathology (HE)” value ([5]; intranasal 3 mM, 15 μl/each side once a day) was “no obvious abnormality”. The “Lung tissue pathology (HE)” value ([5]; medium and low dose, 8 and 4 mg/kgBW via tail vein once/day) was “inflammatory cell infiltration begins to appear”, the “Effect of compound acting together with EC10 and EC20” value [6] was “no obvious effect” and the “Inhibitory activity on B1 receptor activation by EC80 irritant” value [6] was “obviously inhibited”.
